Source: patent publication US8399444B2, “Bicyclic imidazole as DP1 receptor antagonists” (GlaxoSmithKline Intellectual Property Development Ltd., priority 2008, dated 2013)
Structures can show the parent of a compound that is named as a salt.

Assays:
allergic rhinitis model = conditions: oral administration, guinea pig; cited from earlier work
asthma model = conditions: guinea pig; cited from earlier work
Prostanoid DP1 receptor = target: T1, Prostanoid DP1 receptor (Homo sapiens, UniProt Q13258); experiment: Measurement of cAMP using TR-FRET LANCE assay: Prostanoid DP1; type: cell-based; conditions: CHO cells expressing DP1 receptor, antagonism of PGD2 (EC80) cAMP response; read-out: pKi value (converted)
T1 construct: expressed in transfected cells; host or cells: CHO K1
T1 sequence (Q13258 1-359): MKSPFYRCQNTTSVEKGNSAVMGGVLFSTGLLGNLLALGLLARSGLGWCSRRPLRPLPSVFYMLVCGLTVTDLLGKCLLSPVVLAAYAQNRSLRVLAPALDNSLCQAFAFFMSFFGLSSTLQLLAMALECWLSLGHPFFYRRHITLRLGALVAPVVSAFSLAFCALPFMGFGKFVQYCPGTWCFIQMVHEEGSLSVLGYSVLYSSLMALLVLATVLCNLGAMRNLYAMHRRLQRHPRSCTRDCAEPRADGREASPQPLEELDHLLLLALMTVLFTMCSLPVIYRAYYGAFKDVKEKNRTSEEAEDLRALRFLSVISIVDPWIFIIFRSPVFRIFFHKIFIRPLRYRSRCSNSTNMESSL
Method: CHO K1 cells, stably expressing the Prostanoid DP1 receptor, were maintained in culture in DMEM/F12, supplemented with 5% FBS, 2 mM L-glutamine, 400 μg/mL hygromycin B in 95%: 5% air: CO2 at 37° C. Following harvest from culture, cells were centrifuged at 250 g at 4° C. for 10 minutes and re-suspended in ice cold dialysed FCS. Once the cells were in mono-suspension they were slowly mixed with an equal volume of ice cold 80% dialysed FCS: 20% DMSO (pre-mixed and chilled several hours earlier). The cells were then aliquoted into 1 mL tubes within a 96 well block (pre-cooled to 4° C.). Once sealed, the tubes were frozen in a controlled rate freezer. The frozen cells were then transferred to a −140° C. freezer for long term storage.
Measurement of cAMP Using TR-FRET LANCE™ Assays: Prostanoid DP1
The potency of the compounds were determined using a LANCE™ cAMP assay kit as per the kit instructions. Briefly, CHO cells expressing DP1 receptor were thawed at 37° C., diluted in PBS and centrifuged at 1000 RPM for 5 minutes. Cells were then re-suspended (2 million cells/mL) in stimulation buffer (HBSS containing 0.01% BSA, 500 μM FAC IBMX, 5 mmol/L HEPES adjusted to pH 7.4 with KOH.
Briefly, cells were added (10,000 cells/well at 5 μL addition) to low volume white Greiner polypropylene 384-well plate assay plates containing 0.1 μl test compound. Following a 15 minute incubation at room temperature, 5 μl of antibody solution (stimulation buffer containing Alexia fluor 647) containing PGD2 at twice the determined EC80 concentration was added. Plates were incubated for a further 30 minutes at room temperature then detection mixture was added (kit components; detection buffer, europiumW8044-labelled streptavidin and biotin cAMP at 10 μl/well). Plates were covered and incubated the room temperature for 1 hour before reading on a Viewlux Microplate Imager using TR-FRET label settings.
All compounds were dissolved in DMSO at a concentration of 10 mM and were prepared in 100% DMSO using a 1 in 4 dilution step to provide 11-point concentration—response curves. The dilutions were transferred to the assay plates ensuring that the DMSO concentration was constant across the plate at 1% for all assays.
All data were normalised to the mean of 16 high and 16 low control wells on each plate. A four parameter curve fit of the following form was then applied.
Where a is the minimum, b is the Hill slope, c is the XC50, and d is the maximum. Data are presented as the mean pXC50 (negative log 10 of the molar XC50) with the standard deviation (SD) of number of tests in the experiments.

Ki (Prostanoid DP1 receptor) | SMILES | early and late nasal responses (allergic rhinitis model) | antigen-induced eosinophil infiltration into the lung (asthma model)
 | CC1(C)[C@H]2C[C@H](C/C=C\CCCC(=O)O)[C@@H](NC(=O)c3csc4ccc(O)cc34)[C@@H]1C2 [Example S-5751] | inhibited | alleviated
≤ 0.1 µM | CC(C)(C)c1nc2c(n1Cc1ccc(Cl)cc1)C(CC(=O)O)CC2 (stereo not drawn) [Example 14, [3-[(4-chlorophenyl)methyl]-2-(1,1-dimethylethyl)-3,4,5,6-tetrahydrocyclopenta[d]imidazol-4-yl]acetic acid ammonia salt] |  | 
≤ 0.01 µM | CC(C)c1nc2c(n1Cc1ccc(Cl)c(Cl)c1)C(CC(=O)O)CC2 (single isomer, unassigned; isomer 1) [Example 10, (+)-[3-[(3,4-dichlorophenyl)methyl]-2-(1-methylethyl)-3,4,5,6-tetrahydrocyclopenta[d]imidazol-4-yl]acetic acid ammonia salt (Isomer 1)] |  | 
≤ 0.01 µM | CC(C)c1nc2c(n1Cc1ccc(Cl)c(Cl)c1)C(OCC(=O)O)CCCC2 (stereo not drawn) [Example 34, {[3-[(3,4-dichlorophenyl)methyl]-2-(1-methylethyl)-3,4,5,6,7,8-hexahydrocyclohepta[d]imidazol-4-yl]oxy}acetic acid ammonia salt] |  | 
≤ 0.01 µM | CC(C)c1nc2c(n1Cc1ccc(Cl)cc1)C(CC(=O)O)CCC2 (stereo not drawn) [Example 15, [1-[(4-chlorophenyl)methyl]-2-(1-methylethyl)-4,5,6,7-tetrahydro-1H-benzimidazol-7-yl]acetic acid] |  | 
